Results taken from PubChem BioAssay AID330 (DTP/NCI, 2004).
Where “and” joins values, the source holds several entries; their conditions need not be identical. Equal values may be shown once. Inconclusive results and toxic doses are left out.

Test system: P388 leukemia ip, CD2F1 mice, survival T/C
Experiment: NCI In Vivo Anticancer Drug Screen. Data for tumor model P388 Leukemia (intraperitoneal) in CD2F1 (CDF1) mice
Details: endpoint: median survival time, higher = longer survival
Procedure, shortened: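 Mice carrying the transplanted tumor received test compound or vehicle. Survival was recorded in each group, and the value is the treated-group measurement divided by that of the vehicle-treated control group.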

[1] = dose: 100.0 mg/kg/injection, schedule: Q04DX002 (ip), vehicle: saline with Tween-80
[2] = dose: 200.0 mg/kg/injection, schedule: Q04DX002 (ip), vehicle: saline with Tween-80
[3] = dose: 400.0 mg/kg/injection, schedule: Q04DX002 (ip), vehicle: saline with Tween-80
[4] = dose: 12.5 mg/kg/injection, schedule: Q01DX009 (ip), vehicle: saline
[5] = dose: 25.0 mg/kg/injection, schedule: Q01DX009 (ip), vehicle: saline
[6] = dose: 50.0 mg/kg/injection, schedule: Q01DX009 (ip), vehicle: saline
[7] = dose: 60.0 mg/kg/injection, schedule: Q01DX005 (ip), vehicle: saline with Tween-80
[8] = dose: 120.0 mg/kg/injection, schedule: Q01DX005 (ip), vehicle: saline with Tween-80
[9] = dose: 240.0 mg/kg/injection, schedule: Q01DX005 (ip), vehicle: saline with Tween-80
[10] = dose: 100.0 mg/kg/injection, schedule: Q04DX003 (ip), vehicle: other
[11] = dose: 50.0 mg/kg/injection, schedule: Q01DX005 (ip), vehicle: Klucel (hydroxypropylcellulose) (HPC)
[12] = dose: 100.0 mg/kg/injection, schedule: Q01DX005 (ip), vehicle: Klucel (hydroxypropylcellulose) (HPC)
[13] = dose: 200.0 mg/kg/injection, schedule: Q01DX005 (ip), vehicle: Klucel (hydroxypropylcellulose) (HPC)
[14] = dose: 100.0 mg/kg/injection, schedule: Q01DX009 (ip), vehicle: saline with Tween-80
[15] = dose: 200.0 mg/kg/injection, schedule: Q01DX009 (ip), vehicle: saline with Tween-80
[16] = dose: 25.0 mg/kg/injection, schedule: Q01DX005 (ip), vehicle: saline with Tween-80
[17] = dose: 50.0 mg/kg/injection, schedule: Q01DX005 (ip), vehicle: saline with Tween-80

Compound: COc1ccc(C(=NCCc2ccccc2)c2ccccc2)c(O)c1
- T/C [1]: 100 % of control
- T/C [2]: 98 % of control
- T/C [3]: 100 % of control

Compound: CC(=O)OC1CC(C(C)C2CC(C)=C(C)C(=O)O2)C2(C)CCC3C(CC4OC45C(O)C=CC(=O)C35C)C12O (stereo not drawn)
- T/C (dose: 7.5 mg/kg/injection, schedule: Q01DX005 (ip), vehicle: Klucel (hydroxypropylcellulose) (HPC)): 108 % of control
- T/C (dose: 15.0 mg/kg/injection, schedule: Q01DX005 (ip), vehicle: Klucel (hydroxypropylcellulose) (HPC)): 105 % of control
- T/C (dose: 30.0 mg/kg/injection, schedule: Q01DX005 (ip), vehicle: Klucel (hydroxypropylcellulose) (HPC)): 101 % of control

Compound: COc1ccc(OCC2CN(C)CCC2c2ccccc2)cc1 (stereo not drawn)
- T/C [4]: 99 % of control
- T/C [5]: 100 % of control
- T/C [6]: 101 % of control and 94 % of control

Compound: O=[N+]([O-])c1cn(CCCNc2c3ccccc3nc3ccccc23)cn1
- T/C [7]: 95 % of control
- T/C [8]: 107 % of control
- T/C [9]: 112 % of control

Compound: C=Cn1c([N+](=O)[O-])cnc1/C=C/c1ccc(C(=O)OCCN2CCCCC2)cc1
- T/C [1]: 90 % of control
- T/C (dose: 100.0 mg/kg/injection, schedule: Q04DX003 (ip), vehicle: Klucel (hydroxypropylcellulose) (HPC)): 105 % of control
- T/C [2]: 90 % of control
- T/C (dose: 200.0 mg/kg/injection, schedule: Q04DX003 (ip), vehicle: Klucel (hydroxypropylcellulose) (HPC)): 102 % of control
- T/C [3]: 90 % of control
- T/C (dose: 400.0 mg/kg/injection, schedule: Q04DX003 (ip), vehicle: Klucel (hydroxypropylcellulose) (HPC)): 102 % of control

Compound: CN(C)c1nc(-c2ccccc2)c(Cc2ccccc2)c(=O)o1
- T/C [7]: 99 % of control
- T/C [8]: 92 % of control
- T/C [9]: 89 % of control

Compound: COc1cc2c(cc1OC)-c1cc3cc(OC)c(OC)cc3c(C)[n+]1CC2 (tested in a mixture with another compound)
- T/C (dose: 1.56 mg/kg/injection, schedule: Q01DX009 (ip), vehicle: water): 102 % of control
- T/C (dose: 3.13 mg/kg/injection, schedule: Q01DX009 (ip), vehicle: water): 102 % of control
- T/C (dose: 6.25 mg/kg/injection, schedule: Q01DX009 (ip), vehicle: water): 111 % of control
- T/C (dose: 12.5 mg/kg/injection, schedule: Q01DX009 (ip), vehicle: water): 118 % of control
- T/C (dose: 14.8 mg/kg/injection, schedule: Q01DX009 (ip), vehicle: water): 113 % of control
- T/C (dose: 22.0 mg/kg/injection, schedule: Q01DX009 (ip), vehicle: water): 109 % of control
- T/C (dose: 33.0 mg/kg/injection, schedule: Q01DX009 (ip), vehicle: water): 117 % of control
- T/C (dose: 50.0 mg/kg/injection, schedule: Q01DX009 (ip), vehicle: water): 116 % of control
- T/C (dose: 75.0 mg/kg/injection, schedule: Q01DX009 (ip), vehicle: water): 97 % of control

Compound: CCCCCCCCCCCCCCCCOc1ccccc1CNc1cc(C(F)(F)F)ccc1Cl
- T/C [10]: 95 % of control
- T/C (dose: 200.0 mg/kg/injection, schedule: Q04DX003 (ip), vehicle: other): 100 % of control
- T/C (dose: 400.0 mg/kg/injection, schedule: Q04DX003 (ip), vehicle: other): 90 % of control

Compound: COC(=O)C12C3C4C1C1C2C3C41C(=O)OC (stereo not drawn)
- T/C [7]: 102 % of control
- T/C [8]: 102 % of control
- T/C [9]: 102 % of control

Compound: N#CCCNc1ccc(F)cc1
- T/C [6]: 100 % of control
- T/C (dose: 100.0 mg/kg/injection, schedule: Q01DX009 (ip), vehicle: saline): 109 % of control
- T/C (dose: 200.0 mg/kg/injection, schedule: Q01DX009 (ip), vehicle: saline): 104 % of control

Compound: COc1ccc(NC(=O)CCC(=O)C(C)C(=O)c2ccccc2)cc1 (stereo not drawn)
- T/C [7]: 109 % of control
- T/C [8]: 114 % of control
- T/C [9]: 120 % of control

Compound: NC(=O)CCCCCOc1ccc(OC2OC(CO)C(O)C(O)C2O)cc1 (stereo not drawn)
- T/C [1]: 100 % of control
- T/C [2]: 102 % of control
- T/C [3]: 104 % of control

Compound: CC(=O)OCCCCCCCCCCCCCCCCCC1=C(C)C(=O)OC1=O
- T/C (dose: 25.0 mg/kg/injection, schedule: Q01DX005 (ip), vehicle: Klucel (hydroxypropylcellulose) (HPC)): 96 % of control
- T/C [11]: 97 % of control
- T/C [12]: 103 % of control
- T/C [13]: 99 % of control
- T/C (dose: 400.0 mg/kg/injection, schedule: Q01DX005 (ip), vehicle: Klucel (hydroxypropylcellulose) (HPC)): 92 % of control

Compound: CSCCCNC(=O)c1csc(CCNC(=O)c2ccccc2)n1
- T/C [14]: 104 % of control
- T/C [15]: 109 % of control
- T/C (dose: 400.0 mg/kg/injection, schedule: Q01DX009 (ip), vehicle: saline with Tween-80): 104 % of control

Compound: COc1cc(C2c3cc4c(cc3[C@@H](OC3OC5CO[C@@H](C)OC5C(O)C3O)[C@H]3COC(=O)C23)OCO4)cc(OC)c1OC (stereo partly drawn)
- T/C (dose: 16.0 mg/kg/injection, schedule: Q01DX005 (ip), vehicle: saline): 163 % of control
- T/C (dose: 32.0 mg/kg/injection, schedule: Q01DX005 (ip), vehicle: saline): 166 % of control
- T/C (dose: 64.0 mg/kg/injection, schedule: Q01DX005 (ip), vehicle: saline): 153 % of control

Compound: Nc1nc(N)c2cn[nH]c2n1
- T/C (dose: 6.25 mg/kg/injection, schedule: Q01DX009 (ip), vehicle: saline): 95 % of control
- T/C [4]: 93 % of control
- T/C [5]: 100 % of control
- T/C [6]: 104 % of control

Compound: CC(=O)Nc1ccc(O)c(CN2CCN(c3ccccc3)CC2)c1
- T/C (dose: 50.0 mg/kg/injection, schedule: Q01DX009 (ip), vehicle: Klucel (hydroxypropylcellulose) (HPC)): 102 % of control
- T/C (dose: 100.0 mg/kg/injection, schedule: Q01DX009 (ip), vehicle: Klucel (hydroxypropylcellulose) (HPC)): 103 % of control
- T/C (dose: 200.0 mg/kg/injection, schedule: Q01DX009 (ip), vehicle: Klucel (hydroxypropylcellulose) (HPC)): 97 % of control

Compound: C/C(=N\NC(=S)N1CCCCCC1)c1cccc(C)n1
- T/C (dose: 12.5 mg/kg/injection, schedule: Q01DX005 (ip), vehicle: saline with Tween-80): 110 % of control
- T/C [16]: 109 % of control
- T/C [17]: 120 % of control

Compound: CC(=O)C1=C(C)O/C(=C/c2ccc(Cl)cc2)C1=O
- T/C [16]: 118 % of control
- T/C [17]: 118 % of control and 120 % of control
- T/C (dose: 100.0 mg/kg/injection, schedule: Q01DX005 (ip), vehicle: saline with Tween-80): 119 % of control and 124 % of control

Compound: CCC(=O)Nc1cc(Cl)cc2[nH]c(C)nc12
- T/C (dose: 50.0 mg/kg/injection, schedule: Q01DX009 (ip), vehicle: saline with Tween-80): 110 % of control
- T/C [14]: 99 % of control
- T/C [15]: 102 % of control

Compound: Cc1c2c(cc3c4ccccc4n(C)c13)C(=O)OC2=O
- T/C (dose: 0.78 mg/kg/injection, schedule: Q01DX005 (ip), vehicle: Klucel (hydroxypropylcellulose) (HPC)): 99 % of control
- T/C (dose: 1.56 mg/kg/injection, schedule: Q01DX005 (ip), vehicle: Klucel (hydroxypropylcellulose) (HPC)): 93 % of control
- T/C (dose: 3.12 mg/kg/injection, schedule: Q01DX005 (ip), vehicle: Klucel (hydroxypropylcellulose) (HPC)): 89 % of control
- T/C (dose: 6.25 mg/kg/injection, schedule: Q01DX005 (ip), vehicle: Klucel (hydroxypropylcellulose) (HPC)): 89 % of control
- T/C [11]: 89 % of control
- T/C [12]: 88 % of control
- T/C [13]: 97 % of control

Compound: CC(C)OC1=C2CCCCC2=[N+]2CCc3ccccc3C2C1 (stereo not drawn)
- T/C (dose: 6.25 mg/kg/injection, schedule: Q04DX003 (ip), vehicle: saline with Tween-80): 107 % of control
- T/C (dose: 12.5 mg/kg/injection, schedule: Q04DX003 (ip), vehicle: saline with Tween-80): 107 % of control
- T/C (dose: 25.0 mg/kg/injection, schedule: Q04DX003 (ip), vehicle: saline with Tween-80): 99 % of control

Compound: CCCCCCCCCCCCCCCCCC(=O)[Se][Se]C(=O)CCCCCCCCCCCCCCCCC
- T/C (dose: 50.0 mg/kg/injection, schedule: Q01DX009 (ip), vehicle: saline + Tween-80 + alcohol): 99 % of control
- T/C (dose: 100.0 mg/kg/injection, schedule: Q01DX009 (ip), vehicle: saline + Tween-80 + alcohol): 104 % of control
- T/C (dose: 200.0 mg/kg/injection, schedule: Q01DX009 (ip), vehicle: saline + Tween-80 + alcohol): 104 % of control

Compound: CCCCCCCCCCCCCCCCSc1ccc(C)cc1
- T/C (dose: 25.0 mg/kg/injection, schedule: Q04DX003 (ip), vehicle: other): 105 % of control
- T/C (dose: 50.0 mg/kg/injection, schedule: Q04DX003 (ip), vehicle: other): 95 % of control
- T/C [10]: 100 % of control
